Test results as given in the NIST ThermoML archive (doi:10.1016/j.jct.2017.06.006).
± gives the expanded uncertainty stated by the source.

Test: mn = molality of the nth substance listed, in mol/kg
Settings: 100 kPa, Liquid, Vibrating tube method

N[C@@H](Cc1ccccc1)C(=O)O [L-phenylalanine] + O
mass density (283.15 K, m1 = 0.0102): 1000.19 ± 0.3 kg/m3 | mass density (283.15 K, m1 = 0.0203): 1000.64 ± 0.3 kg/m3 | mass density (283.15 K, m1 = 0.0293): 1001.05 ± 0.3 kg/m3 | mass density (283.15 K, m1 = 0.0398): 1001.53 ± 0.3 kg/m3 | mass density (283.15 K, m1 = 0.0509): 1002.02 ± 0.3 kg/m3 | mass density (283.15 K, m1 = 0.0606): 1002.47 ± 0.3 kg/m3 | mass density (283.15 K, m1 = 0.061): 1002.49 ± 0.3 kg/m3 | mass density (283.15 K, m1 = 0.0736): 1003.05 ± 0.3 kg/m3 | mass density (283.15 K, m1 = 0.0915): 1003.87 ± 0.3 kg/m3 | mass density (283.15 K, m1 = 0.1028): 1004.36 ± 0.3 kg/m3 | mass density (288.15 K, m1 = 0.0102): 999.59 ± 0.3 kg/m3 | mass density (288.15 K, m1 = 0.0203): 1000.04 ± 0.3 kg/m3 | mass density (288.15 K, m1 = 0.0293): 1000.44 ± 0.3 kg/m3 | mass density (288.15 K, m1 = 0.0398): 1000.91 ± 0.3 kg/m3 | mass density (288.15 K, m1 = 0.0509): 1001.39 ± 0.3 kg/m3 | mass density (288.15 K, m1 = 0.0606): 1001.83 ± 0.31 kg/m3 | mass density (288.15 K, m1 = 0.061): 1001.85 ± 0.3 kg/m3 | mass density (288.15 K, m1 = 0.0736): 1002.4 ± 0.3 kg/m3 | mass density (288.15 K, m1 = 0.0915): 1003.2 ± 0.3 kg/m3 | mass density (288.15 K, m1 = 0.1028): 1003.69 ± 0.3 kg/m3 | mass density (293.15 K, m1 = 0.0102): 998.69 ± 0.3 kg/m3 | mass density (293.15 K, m1 = 0.0203): 999.13 ± 0.3 kg/m3 | mass density (293.15 K, m1 = 0.0293): 999.52 ± 0.3 kg/m3 | mass density (293.15 K, m1 = 0.0398): 999.98 ± 0.3 kg/m3 | mass density (293.15 K, m1 = 0.0509): 1000.46 ± 0.3 kg/m3 | mass density (293.15 K, m1 = 0.0606): 1000.9 ± 0.31 kg/m3 | mass density (293.15 K, m1 = 0.061): 1000.91 ± 0.3 kg/m3 | mass density (293.15 K, m1 = 0.0736): 1001.45 ± 0.3 kg/m3 | mass density (293.15 K, m1 = 0.0915): 1002.24 ± 0.3 kg/m3 | mass density (293.15 K, m1 = 0.1028): 1002.73 ± 0.3 kg/m3 | mass density (298.15 K, m1 = 0.0102): 997.52 ± 0.3 kg/m3 | mass density (298.15 K, m1 = 0.0203): 997.95 ± 0.3 kg/m3 | mass density (298.15 K, m1 = 0.0293): 998.35 ± 0.3 kg/m3 | mass density (298.15 K, m1 = 0.0398): 998.8 ± 0.3 kg/m3 | mass density (298.15 K, m1 = 0.0509): 999.27 ± 0.3 kg/m3 | mass density (298.15 K, m1 = 0.0606): 999.7 ± 0.31 kg/m3 | mass density (298.15 K, m1 = 0.061): 999.71 ± 0.3 kg/m3 | mass density (298.15 K, m1 = 0.0736): 1000.25 ± 0.3 kg/m3 | mass density (298.15 K, m1 = 0.0915): 1001.03 ± 0.3 kg/m3 | mass density (298.15 K, m1 = 0.1028): 1001.5 ± 0.3 kg/m3 | mass density (303.15 K, m1 = 0.0102): 996.12 ± 0.3 kg/m3 | mass density (303.15 K, m1 = 0.0203): 996.54 ± 0.3 kg/m3 | mass density (303.15 K, m1 = 0.0293): 996.93 ± 0.3 kg/m3 | mass density (303.15 K, m1 = 0.0398): 997.38 ± 0.3 kg/m3 | mass density (303.15 K, m1 = 0.0509): 997.85 ± 0.3 kg/m3 | mass density (303.15 K, m1 = 0.0606): 998.27 ± 0.3 kg/m3 | mass density (303.15 K, m1 = 0.061): 998.28 ± 0.3 kg/m3 | mass density (303.15 K, m1 = 0.0736): 998.81 ± 0.3 kg/m3 | mass density (303.15 K, m1 = 0.0915): 999.58 ± 0.3 kg/m3 | mass density (303.15 K, m1 = 0.1028): 1000.05 ± 0.3 kg/m3

O [water] + CCCCn1cc[n+](C)c1C.[Br-]
mass density (283.15 K, m2 = 0): 999.72 ± 0.36 kg/m3

CCCCn1cc[n+](C)c1C.[Br-] [1-butyl-2,3-dimethylimidazolium bromide] + O
mass density (283.15 K, m1 = 0.1): 1004.75 ± 0.36 kg/m3 | mass density (288.15 K, m1 = 0.1): 1004.08 ± 0.36 kg/m3 | mass density (293.15 K, m1 = 0.1): 1003.12 ± 0.36 kg/m3 | mass density (298.15 K, m1 = 0.1): 1001.89 ± 0.36 kg/m3 | mass density (303.15 K, m1 = 0.1): 1000.44 ± 0.36 kg/m3

O [water] + N[C@@H](Cc1ccccc1)C(=O)O
mass density (283.15 K, m2 = 0): 999.72 ± 0.3 kg/m3
